# Active and inactive are the calls of the source. The rule behind the calls is not given here.
# Biological target: Caspase-6 (Homo sapiens) (UniProt P55212)
# Experiment: human caspase-6 inhibitors, dose response, biochemical, VEID-R110 fluorescence, cherry-pick (AID 720632)
# Details: caspase-6, VEID-R110 fluorogenic substrate; at 8 µM (top of the series)
# Chain of Caspase-6 (Homo sapiens) (P55212 24-179 limits assumed): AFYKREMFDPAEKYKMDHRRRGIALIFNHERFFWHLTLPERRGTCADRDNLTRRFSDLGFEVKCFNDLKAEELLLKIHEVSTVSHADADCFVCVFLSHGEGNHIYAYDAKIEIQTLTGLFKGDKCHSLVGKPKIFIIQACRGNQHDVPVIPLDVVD
# Chain of Caspase-6 (Homo sapiens) (P55212 194-293 limits assumed): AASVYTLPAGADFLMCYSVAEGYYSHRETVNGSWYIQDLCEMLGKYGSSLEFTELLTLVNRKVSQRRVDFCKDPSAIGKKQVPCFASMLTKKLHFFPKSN
row,SMILES,"activity change, negative = inhibition"
1,CN(C)CCCN(C(=O)c1ccc([N+](=O)[O-])s1)c1nc2cc3c(cc2s1)OCCO3,inactive

# Same assay, conditions: caspase-6, VEID-R110 fluorogenic substrate; at 26 µM (top of the series)
row,SMILES,"activity change, negative = inhibition"
1,CCOc1cc2c(cc1OC)C(c1cccc([N+](=O)[O-])c1)NCC2 (stereo unspecified),inactive
2,O=C(Nc1cccc(-c2ccccc2)c1)N1CCN(C(=O)Nc2cccc(-c3ccccc3)c2)CC1,inactive
3,CO[C@@H]1CN(C)C(=O)c2ccc(NC(C)=O)cc2OC[C@H](C)N(C(=O)CC2CC2)C[C@@H]1C,inactive
4,Cc1cc(C)cc(N(CC(=O)N2CCCCCC2)S(C)(=O)=O)c1,inactive
5,CO[C@@H]1CN(C)C(=O)c2ccc(NC(=O)C3CC3)cc2OC[C@H](C)N(Cc2ccccc2)C[C@@H]1C,inactive
6,OCc1ccccc1-c1nc(NCc2ccccc2)nc2ccsc12,inactive
7,C=CCC(NCc1ccccc1)c1ccc(Cl)cc1 (stereo unspecified),inactive
8,CN1C(=O)CC(Sc2ccccc2C(=O)O)C1=O (stereo unspecified),inactive
9,C=CCNc1nc(Nc2cc(Cl)ccc2OC)nc(OC)n1,inactive
10,O=[N+]([O-])c1ccc2nc(-c3ccccc3[N+](=O)[O-])[nH]c2c1,inactive
11,CCC(=O)Nc1ccc2c(c1)OC[C@H](C)N(C(=O)CC)C[C@@H](C)[C@@H](OC)CN(C)C2=O,inactive
12,CCCC(=O)Nc1ccc2c(c1)OC[C@@H](C)N(C(=O)CC)C[C@@H](C)[C@@H](OC)CN(C)C2=O,inactive
13,COc1ccc(N2CCN(C(=O)CCNS(=O)(=O)c3ccc(C)cc3)CC2)cc1,inactive
14,COc1ccc(OC)c(NC(=O)Nc2ccc(O)c3ccccc23)c1,inactive
15,COc1ccc(C(=O)Nc2cc(C(=O)O)cc(C(=O)O)c2)cc1Cl,inactive
16,COc1cccc(NS(=O)(=O)c2ccc3c(c2)NC(=O)CC(=O)N3)c1,inactive
17,COc1ccc(C(=O)Nc2ccc3ccccc3c2)c(OC)c1,inactive
18,Oc1ccc(/C=N/n2c(-c3ccccc3)n[nH]c2=S)cc1Br,inactive
19,CCCCn1c(N)c(N(CCC(C)C)C(=O)COC(=O)c2ccc([N+](=O)[O-])s2)c(=O)[nH]c1=O,inactive
20,Nc1ccc2cn[nH]c2c1,inactive
21,COc1ccccc1C#Cc1ccc2c(c1)O[C@@H](CN(C)C)[C@@H](C)CN([C@@H](C)CO)S2(=O)=O,inactive
22,O=C(CCCn1c(=S)[nH]c2cc3c(cc2c1=O)OCO3)N1CCN(c2ccccc2F)CC1,inactive

row,SMILES,"activity change, negative = inhibition"
1,CCOc1ccc(Nc2nc(N3CCOCC3)nc(N3CCOCC3)n2)cc1,inactive
2,COc1cc2[nH]c(Cl)c([N+](=O)[O-])c2cc1OC,inactive
3,O=C(NCC(=O)N1CC=C(c2ccccc2)CC1)c1ccccc1Br,inactive
4,O=C(NC1CCCCC1)C(c1ccnc2ccccc12)N1CCc2ccccc2C1 (stereo unspecified),inactive
5,COc1ccccc1NC(=O)C(C)OC(=O)CCC1CCCCC1 (stereo unspecified),inactive
6,Cc1cc(C)nc(N2CCN(S(=O)(=O)c3ccc(F)cc3)CC2)n1,inactive
7,COc1ccc2oc(C(=O)N3CCN(c4ncccn4)CC3)c(C)c2c1,inactive
8,CC(C)CNC(=O)C1(C)CCCN1C(=O)Cc1cccc2ccccc12 (stereo unspecified),inactive
9,Nc1cc(C(Cl)=C(Cl)Cl)c(S(N)(=O)=O)cc1S(N)(=O)=O,inactive
10,C=CCOc1cccn2c(N(C=O)Cc3ccccc3)c(CC)nc12,inactive
11,CO[C@H]1CN(C)C(=O)c2ccc(NC(=O)C3CC3)cc2OC[C@H](C)N(Cc2cccc(F)c2)C[C@H]1C,inactive
12,CCCCOc1ccc(C(=O)OCC(=O)N2CCOCC2)cc1,inactive
13,C[C@H]1CN([C@@H](C)CO)C(=O)CCCn2cc(nn2)CO[C@@H]1CN(C)C(=O)CCC(F)(F)F,inactive
14,Cc1ccc(-c2[nH]c3cc(C(=O)NCCCn4ccnc4)ccc3c(=O)c2O)cc1,inactive
15,O=C(NCC(c1ccco1)N1CCc2ccccc21)c1ccc([N+](=O)[O-])cc1 (stereo unspecified),inactive
16,C#CC(C)(C)NC(=O)c1ccc(-c2ccccc2F)cc1,inactive
17,CC1CCc2[nH]c3ccc(C(=O)O)cc3c2C1 (stereo unspecified),inactive
18,CCOC(=O)C1CCCN(S(=O)(=O)c2nc3nc(C)cc(C)n3n2)C1 (stereo unspecified),inactive
19,Cn1c(CSCCOc2ccccc2)n[nH]c1=S,inactive
20,CC(C)N=C(Nc1cccnc1)c1ccccc1,inactive
21,Cc1nc2ccccc2c(=O)n1-c1ccc(NS(=O)(=O)c2ccc(F)cc2F)cc1,inactive
22,Cn1c(=O)[nH]c(=O)c2c1nc(CN1CCOCC1)n2Cc1ccccc1,inactive

row,SMILES,"activity change, negative = inhibition"
1,O=C(NC(=S)NNS(=O)(=O)c1ccccc1)c1ccccc1[N+](=O)[O-],inactive
2,COc1cc2ccccc2cc1C(=O)N(CCN(C)C)c1nc2c(F)cc(F)cc2s1,inactive
3,CO[C@@H]1CN(C)C(=O)c2ccc(NC(=O)c3ccccc3)cc2OC[C@H](C)N(C(=O)C2CC2)C[C@@H]1C,inactive
4,Cc1ccccc1OC1(C)CCN(Cc2ccc(-c3ccccn3)cc2)C1 (stereo unspecified),inactive
5,O=C(CN1C(=O)NC2(CCc3ccccc32)C1=O)Nc1c(Cl)cccc1Cl (stereo unspecified),inactive
6,N#CC1=C(N)Oc2cc(N)ccc2C1c1ccccc1 (stereo unspecified),inactive
7,CCCC(=O)Nc1ccc2c(c1)OC[C@@H](C)NC[C@H](C)[C@H](OC)CN(C)C2=O,inactive
8,COc1ccc(NC(=O)Nc2ccccc2F)c([N+](=O)[O-])c1,inactive
9,O=C1CC(NS(=O)(=O)c2cc(F)ccc2F)CN1c1cccc(F)c1 (stereo unspecified),inactive
10,CO[C@@H]1CN(C)C(=O)c2ccc(NC(=O)C3CC3)cc2OC[C@H](C)N(Cc2cccc(F)c2)C[C@H]1C,inactive
11,O=C1c2ccccc2C(=O)C1(CO)c1ccccc1,inactive
12,CCCN1C[C@H](C)[C@H](OC)CN(C)C(=O)c2ccc(NC(=O)c3ccccc3)cc2OC[C@H]1C,inactive
13,Cc1onc(-c2ccc(Cl)cc2Cl)c1-c1csc(N/N=C/c2ccccc2Cl)n1,inactive
14,O=C(C1CCN(c2ccc(N3CCOCC3)nn2)CC1)N1CCc2ccccc2C1,inactive
15,Cn1c(SCCOc2ccccc2Cl)nnc1-c1ccncc1,inactive
16,CCC(=O)Nc1ccc2c(c1)OC[C@@H](C)N(C(=O)CC)C[C@H](C)[C@@H](OC)CN(C)C2=O,inactive
17,COCC(=O)Nc1ccc2c(c1)OC[C@H](C)N(CC1CC1)C[C@@H](C)[C@@H](OC)CN(C)C2=O,inactive
18,Cc1ccc(NC(=O)Nc2nnc(-c3ccccc3)o2)cc1,inactive
19,COc1cc(OC)c(NS(=O)(=O)c2c(C)[nH]c(=O)[nH]c2=O)cc1Cl,inactive
20,O=C(Nc1ccc2c(c1)[C@H]1C[C@H](CC(=O)N3CCCCC3)O[C@@H](CO)[C@H]1O2)Nc1ccccc1F,inactive
21,CCN(CC)C(=O)COc1ccc(/C(C)=N/NC(=O)c2ccccc2O)cc1,inactive
22,O=C([C@H]1[C@H](CO)[C@H]2Cn3c(cccc3=O)[C@H]2N1Cc1cc(F)ccc1F)N1CCOCC1,inactive

row,SMILES,"activity change, negative = inhibition"
1,CCCNC(=O)[C@@H]1[C@@H](CO)[C@@H]2Cn3c(ccc(-c4ccccc4)c3=O)[C@@H]2N1CC1CC1,inactive
2,Cc1c(Cl)cccc1NC(=O)Nc1cc(C(C)(C)C)on1,inactive
3,O=C(N/N=C/c1cccc(O)c1)c1ccccc1O,inactive
4,O=C1NC(=O)C(Sc2ccccc2[N+](=O)[O-])C(=O)N1,inactive
5,CN(C(=O)c1ccc(Cl)cc1)c1ccc(OCC(=O)Nc2cc(C(=O)O)ccc2Cl)cc1,inactive
6,CCCN1C[C@@H](C)[C@@H](OC)CN(C)C(=O)c2ccc(NC(=O)CC)cc2OC[C@H]1C,inactive
7,O=C(Oc1ccc(Nc2ncnc3ccccc23)cc1)c1cccnc1,inactive
8,Cc1ccc(C)c(OCCC(=O)N2CCN(S(=O)(=O)c3cc(F)ccc3F)CC2)c1,inactive
9,COC(=O)c1ccc(C(=O)OC)c(NC(=O)CN(c2ccc3c(c2)OCO3)S(C)(=O)=O)c1,inactive
10,CO[C@H]1CN(C)C(=O)c2ccc(NC(=O)C3CC3)cc2OC[C@@H](C)N(Cc2ccccc2)C[C@@H]1C,inactive
11,Cc1nc2ccc(NC(=O)CCC3CCCC3)cc2s1,inactive
12,Clc1cccc(-c2nn3c(Cn4cnc5ccccc54)nnc3s2)c1,inactive
13,CC1CCCC(C)N1C(=O)C1CCCCC1 (stereo unspecified),inactive
14,CCC(C)Nc1nc2c(C)cccn2c(=O)c1C=Nc1ccc(OC)cc1 (stereo unspecified),inactive
15,CCCCN(C(=O)c1cccc(-n2cccc2)c1)c1c(N)n(CCCC)c(=O)[nH]c1=O,inactive
16,Cc1ccc(C)c(S(=O)(=O)N2CCN(C(C)C(=O)Nc3ccccc3-c3ccccc3)CC2)c1 (stereo unspecified),inactive
17,COc1ccc(OC)c(N(CC(=O)Nc2ccccc2)S(C)(=O)=O)c1,inactive
18,CCCC(=O)Nc1ccc2c(c1)OC[C@@H](C)NC[C@@H](C)[C@@H](OC)CN(C)C2=O,inactive
19,C#CCOc1ccc(CNC[C@H]2O[C@@H](n3ccc(N)nc3=O)[C@H](O)[C@@H]2O)cc1,inactive

# — PubChem BioAssay AID720632 (Broad Institute, 2013)
